Test results: publication PMC3079055 (Archives of biochemistry and biophysics, 2011)

What was measured:
[1] = target: C. albicans CYP51F1 Y132H mutant (Candida albicans, UniProt P10613, Y132H); test: Spectral binding titration of purified CYP51F1 Y132H mutant
[2] = target: C. albicans CYP51F1 wild-type (Candida albicans, UniProt P10613); test: Spectral binding titration of purified CYP51F1 wild type
[3] = target: C. albicans CYP51F1 R467K mutant (Candida albicans, UniProt P10613, R467K); test: Spectral binding titration of purified CYP51F1 R467K mutant
[4] = target: C. albicans CYP51F1 D116E mutant (Candida albicans, UniProt P10613, D116E); test: Spectral binding titration of purified CYP51F1 D116E mutant
[5] = target: C. albicans CYP51F1 F105L mutant (Candida albicans, UniProt P10613, F105L); test: Spectral binding titration of purified CYP51F1 F105L mutant

Row | SMILES | Kd [1] | Kd [2] | Kd [3] | Kd [4] | Kd [5]
1 | CC(=O)N1CCN(c2ccc(OCC3COC(Cn4ccnc4)(c4ccc(Cl)cc4Cl)O3)cc2)CC1 (centres unmarked) [Ketoconazole, ketoconazole] | 540 ± 70 nM | 420 ± 80 nM | 660 ± 130 nM | 430 ± 80 nM | 170 ± 40 nM
2 | OC(Cn1cncn1)(Cn1cncn1)c1ccc(F)cc1F [Fluconazole, fluconazole] | 150 ± 60 nM | 60 ± 10 nM | 60 ± 10 nM | 30 ± 10 nM | 20 ± 10 nM
3 | CC(C)=CCC[C@@H](C)[C@H]1CC[C@@]2(C)C3=C(CC[C@]12C)[C@@]1(C)CC[C@H](O)C(C)(C)[C@@H]1CC3 [lanosterol, Lanosterol] |  | 6700 nM |  |  | 
4 | CCC(C)n1ncn(-c2ccc(N3CCN(c4ccc(OCC5COC(Cn6cncn6)(c6ccc(Cl)cc6Cl)O5)cc4)CC3)cc2)c1=O (centres unmarked) [Itraconazole, itraconazole] |  | 190 ± 60 nM | 180 ± 40 nM | 150 ± 30 nM | 160 ± 40 nM
5 | Clc1ccc(COC(Cn2ccnc2)c2ccc(Cl)cc2Cl)cc1 (centres unmarked) [Econazole, econazole] | 420 ± 60 nM | 200 ± 40 nM | 130 ± 30 nM | 140 ± 30 nM | 100 ± 30 nM
